Laboratory results taken from patent US20160158245A1, “PHARMACEUTICAL FORMULATION CONTAINING THIENOTRIAZOLODIAZEPINE COMPOUNDS” (ONCOETHIX GmbH, priority 2013, published 2016).

Assays:
Type in all cases: cell-based
[1] = test system: BRD4, BRD3 and c-MYC in K562; assay: Immunoblot (protein level) in K562; conditions: K562, 500 nM, starting after 24 h
Description: (§1) FIGS. 43A-43L illustrate effects of OTX015 at the protein level for BRD 4, BRD2 and BRD 3 as well as c-MYC. […] AML cell lines HL60, K562 (FIGS. 43A-43C; FIG. 43D-43F) and ALL cell lines Jurkat and RS4-11 (FIG. 43G-43I; FIG. 4JD-43L) were treated with OTX015 at 500 nM and compared to controls exposed to according DMSO. At indicated time-points proteins were extracted and immunoblotted with BRD4, BRD3, BRD2 or c-MYC antibodies after gel electrophoresis. […] One representative experiment out of three is shown.
(§2) The membranes were blocked with LiCor blocking buffer (LiCor, Lincoln, Nebr., USA) and incubated with the respective primary antibody: anti-BRD4 (Epitomics 5716-1, Burlingame, USA), anti-BRD3 (ab56342, AbCam, UK), anti-BRD2 (ab37633, AbCam, UK), anti c-MYC (sc-764 (N262), Santa Cruz, USA) and anti-GAPDH (Invitrogen 398600, Grand Island, USA). Blots were stained with either goat anti-rabbit InfraRedDye 680RD or goat anti-mouse InfraRedDye 800CWsecondary antibody (LiCor). Membranes were imaged using a LiCor Odyssey scanner. Boxes were manually placed around each band of interest, which returned near-infrared fluorescent values of raw intensity with intra-lane background subtracted using Odyssey 3.0 analytical software (LiCor).

ALL and AML cell lines = assay: Cell cycle analysis (PI flow cytometry)
Description: For conventional cell-cycle analysis, 1×10^6 cells were harvested, washed in PBS, and fixed in 70% ice cold ethanol. Cells were incubated with 100 μg/mL RNAse (Sigma, Saint-Quentin Fallavier, France) and stained with PI (25 μg/mL, Becton Dickinson) followed by an incubation period of 30 minutes at 37° C. Subsequently, cell-cycle distribution was determined by cytofluorometric analysis. Data were analyzed with the Flowjo (Tree Star Inc., Ashland, USA) flow cytometry software.

[2] = test system: BRD2, BRD3, BRD4 and c-MYC; assay: Immunoblot of BRD proteins and c-MYC in leukemia cell lines; conditions: different leukemia cell lines, 100 nM, within 3 hours
c-MYC = assay: QT-PCR of c-MYC in leukemia cell lines; conditions: all cell lines, 250 nM and 500 nM, 48 h
Description: The oncogene c-MYC is thought to be activated by BRD4 and is crucial for leukemia maintenance. […] We determined basal gene expression levels of c-MYC in different leukemia cell lines showing heterogeneous results without clear correlation to biologic effects of Compound (1-1) in regard to MTT, apoptosis or cell cycle effects (FIGS. 42A and 42B).
The total RNA obtained after extraction with TRIZOL (Invitrogen, Grand Island, USA) were titrated to 1 μg/uL and stored at −80° C. The complementary DNA (cDNA) was synthesized from 1 μg RNA. The RQ-PCR reactions (BRD2, BRD3, BRD4, c-MYC and ABL) were performed in a volume of 25 ul from a tenth of the cDNA (equivalent to 100 ng of RNA) on a thermocycler ABI7900HT in standard mode (1 cycle of 2 minutes at 50° C.-10 minutes at 95° C. followed by 50 cycles of 15 seconds at 95° C.-1 minute at 60° C.).

ALL cell lines = assay: MTT assay, statement over all ALL cell lines; conditions: MTT at 72 h, span over ALL cell lines; read-out: GI50 across all ALL cell lines
Description: Different representative cell lines for ALL including Jurkat cells (T-ALL), RS 4-11 (MLL-AF4 B-precursor ALL), TO′M-1, BV173 (both Ph+ALL) and AML including K562 (Ph+CML in blast crisis,), HL-60 (NRAS driven AML2), NOMO1 (MLL-AF9 driven AML), KG1 (BMP-FGRF+AML6) and its more immature subtype KG1a were cultured in RPMI 1640 (Gibco Invitrogen, Basel, Switzerland) supplemented with 10% or 20% heat-inactivated fetal calf serum respectively, 2 mM L-glutamine, 100 IU/mL penicillin, and 100 µg/mL streptomycin.
MTT-assay: cells were seeded first into 24-well plates at the density of […] per well to avoid variations of concentrations in smaller volumes and treated with different doses of OTX015 prepared freshly from 1 mM stock solution in DMSO. Cells were transferred to 96-well plates for MTT-assay. Untreated cells and cells treated with equal amounts of DMSO (0.2-1%) used for dilution of OTX015 were used as controls. The 3-(4,5-dimethylthiazol-2-yl)-2,5-diphenyltetrazolium bromide (MTT) (Molecular Probes, Eugene, USA) was prepared as a stock of 5 mg/ml in PBS. […] Cells were then lysed with 25% SDS lysis buffer and absorbance was read at 570 nm. […] GI50 values were calculated with Prism v5 software (GraphPad Inc., La Jolla, USA).
AML and ALL cell lines were exposed to increasing concentrations of compound (1-1), (0.1 nM-10 μM). […] GI50 values were expressed as means from 3 independent experiments.

c-MYC in Jurkat = assay: Immunoblot (protein level) in Jurkat; conditions: 500 nM, 48 h and 72 h
Description: as §1, §2

Structure (SMILES): Cc1sc2c(c1C)C(c1ccc(Cl)cc1)=N[C@@H](CC(=O)Nc1ccc(O)cc1)c1nnc(C)n1-2 [Compound (1-1), 2-[(6S)-4-(4-chlorophenyl)-2,3,9-trimethyl-6H-thienol[3,2-f]-[1,2,4]triazolo[4,3-a][1,4]diazepin-6-yl]-N-(4-hydroxyphenyl)acetamide dihydrate]
- BRD4, BRD3 and c-MYC protein level [1]: downregulation of BRD4, BRD3 and c-MYC
- S phase fraction (ALL and AML cell lines; 48 h, AML and ALL cell lines): decreased S phase fraction in almost all cell lines
- cell cycle arrest (ALL and AML cell lines; all cell lines): induced cell cycle arrest in all cell lines
- regulation of BRD2, BRD3, BRD4 and c-MYC at the protein level [2]: rapid down-regulation of BRD2, BRD3 and BRD4 associated with c-MYC down-regulation
- c-MYC gene expression (c-MYC): c-MYC downregulation was observed in all cell lines
- GI50 (ALL cell lines): 0.0342 to 0.25 µM
- c-MYC protein level (c-MYC in Jurkat): c-MYC downregulation
